The test system of one data set is HCC70. Briefly: cells. The following applies: Homo sapiens, HCC70, 72 h.
The nature of data set [1]: Cmax in female Balb/c nude mouse at 5 mg/kg, po. It counts as ADME, organism-based. The following applies: in vivo.
Data set [2] is described as follows: Volume of distribution at steady state in female Balb/c nude mouse at 1 mg/kg, iv. The class given is ADME, organism-based. The following applies: in vivo, read-out: Vdss.
The test system of a further data set is OVCAR-3. Briefly: cells. The conditions noted are these: Homo sapiens, OVCAR-3, 72 h.
A short description of data set [3]: Oral bioavailability in female Balb/c nude mouse at 5 mg/kg. The conditions noted are these: in vivo. The class given is ADME, organism-based.
Data set [4] in a line: Efflux ratio of permeability in human Caco-2 cells. It counts as ADME, cell-based.
Data set [5] is described as follows: Half life in female Balb/c nude mouse at 5 mg/kg, po. It counts as ADME, organism-based. The following applies: in vivo.
The nature of data set [6]: Permeability in human Caco-2 cells. The conditions noted are these: read-out: permeability. It counts as ADME, cell-based. (Caco-2 monolayers are a common model of the intestinal barrier.)
Data set [7] in a line: AUC(0 to t) in female Balb/c nude mouse at 5 mg/kg, po. It counts as ADME, organism-based. The following applies: in vivo.
Data set [8] can be described thus: Clearance in female Balb/c nude mouse at 1 mg/kg, iv. It counts as ADME, organism-based. The conditions noted are these: in vivo.
The next data set has as its target CDK7/Cyclin H/MNAT1 (Homo sapiens, UniProt P50613). Briefly: Inhibition of CDK7/CyclinH/MAT1 (unknown origin) in presence of ATP by kinase activity assay. It counts as protein-complex assay.
Data set [9] is described as follows: Oral bioavailability in female Balb/c nude mouse at 10 mg/kg. It counts as ADME, organism-based. The following applies: in vivo.
Data set [10] can be described thus: Cmax in female Balb/c nude mouse at 10 mg/kg, po. The class given is ADME, organism-based. The conditions noted are these: in vivo.
Data set [11] can be described thus: AUC(0 to infinity) in female Balb/c nude mouse at 1 mg/kg, iv. It counts as ADME, organism-based. The following applies: in vivo.
Data set [12] concerns the target Cyclin-dependent kinase 7/ cyclin H (Homo sapiens, UniProt P50613). Briefly: Binding affinity to CDK7/CyclinH (unknown origin) assessed as dissociation constant by SPR assay. It counts as protein-complex assay. (SPR reads the build-up and loss of mass on a sensor chip optically.)
Data set [13] can be described thus: AUC(0 to infinity) in female Balb/c nude mouse at 10 mg/kg, po. The class given is ADME, organism-based. The conditions noted are these: in vivo.
Data set [14] is described as follows: Metabolic stability in mouse liver microsomes assessed as intrinsic clearance. The class given is ADME, Microsome. The conditions noted are these: read-out: CLH.
A short description of data set [15]: Half life in female Balb/c nude mouse at 10 mg/kg, po. It counts as ADME, organism-based. The following applies: in vivo.

Chain of CDK7/Cyclin H/MNAT1 (P51946 whole entry): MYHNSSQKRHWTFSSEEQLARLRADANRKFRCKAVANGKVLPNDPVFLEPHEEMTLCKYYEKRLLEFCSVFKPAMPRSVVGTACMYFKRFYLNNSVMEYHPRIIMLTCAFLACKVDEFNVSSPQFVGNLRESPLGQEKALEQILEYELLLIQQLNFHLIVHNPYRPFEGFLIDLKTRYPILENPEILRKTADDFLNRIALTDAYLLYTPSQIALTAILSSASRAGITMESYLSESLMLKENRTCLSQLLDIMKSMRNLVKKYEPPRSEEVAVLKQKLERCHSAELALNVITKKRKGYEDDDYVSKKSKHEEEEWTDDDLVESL
Chain of CDK7/Cyclin H/MNAT1 (P50613 whole entry): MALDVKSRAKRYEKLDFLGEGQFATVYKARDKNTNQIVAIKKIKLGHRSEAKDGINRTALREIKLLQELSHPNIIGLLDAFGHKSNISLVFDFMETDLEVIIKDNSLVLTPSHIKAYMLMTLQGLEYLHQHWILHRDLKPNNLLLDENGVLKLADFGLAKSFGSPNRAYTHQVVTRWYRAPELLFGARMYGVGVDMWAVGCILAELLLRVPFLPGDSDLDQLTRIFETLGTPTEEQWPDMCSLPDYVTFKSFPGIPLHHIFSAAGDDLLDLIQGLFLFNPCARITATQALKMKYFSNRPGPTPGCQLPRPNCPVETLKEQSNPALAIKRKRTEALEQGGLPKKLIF
Chain of CDK7/Cyclin H/MNAT1 (P51948 whole entry, further chain): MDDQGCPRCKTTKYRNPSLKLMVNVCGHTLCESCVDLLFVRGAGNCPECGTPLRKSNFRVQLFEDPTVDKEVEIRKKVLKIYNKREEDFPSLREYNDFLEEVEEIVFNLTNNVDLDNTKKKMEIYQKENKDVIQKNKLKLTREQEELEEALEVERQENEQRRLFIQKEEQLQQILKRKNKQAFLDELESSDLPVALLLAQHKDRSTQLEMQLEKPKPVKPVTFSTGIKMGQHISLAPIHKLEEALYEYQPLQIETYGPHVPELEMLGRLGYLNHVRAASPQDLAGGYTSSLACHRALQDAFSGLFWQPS
Chain of Cyclin-dependent kinase 7/ cyclin H (P51946 whole entry): as the sequence (P51946 whole entry) above
Chain of Cyclin-dependent kinase 7/ cyclin H (P50613 whole entry): as the sequence (P50613 whole entry) above
Description for HCC70: Antiproliferative activity against human HCC70 cells assessed as inhibition of cell proliferation incubated for 72 hrs by celltiter-glo assay
Description for OVCAR-3: Antiproliferative activity against human OVCAR-3 cells assessed as inhibition of cell proliferation incubated for 72 hrs by celltiter-glo assay

In general, IC50 refers to the point on the concentration scale where inhibition reaches its midpoint. For `CP(C)(=O)c1c2ccc3c(c[nH]c13)-c1nc(ncc1C(F)(F)F)N[C@H]1CC[C@@H](C1)NCCCCCNC2=O`, inhibition in the data set on HCC70 was half-maximal at 202 nM (IC50).

What is called Cmax is the maximum level reached in the sampled fluid or tissue. The bioavailability is dose-corrected exposure relative to a reference, in per cent. Lower therefore signals little systemic uptake. For orientation: efflux ratio means the permeability from basolateral to apical divided by that in the opposite direction, in the common usage. One may read the half-life as the time in which the quantity being followed falls by half. A high value points to slow loss. The AUC(0-t) is the area under the concentration-time curve up to a stated or last time point. High values mean high exposure, low ones low exposure. In general, clearance refers to the rate of elimination divided by the concentration. Lower therefore signals a low capacity for elimination. In [1], `CN1CCOCCN(C)[C@H]2CC[C@@H](C2)Nc2ncc(C(F)(F)F)c(n2)-c2c[nH]c3c(P(C)(C)=O)c(ccc23)C1=O` displayed a Cmax of 268 ng/mL. In data set [2], the Vd was determined as 1.5 L/kg. The results for the IC50 in the data set on OVCAR-3 and in the data set with HCC70 were 241 nM and 56.1 nM, respectively. The bioavailability in data set [3] was 28.4%. The efflux ratio in data set [4] was 32.5. Besides, in data set [5], the half-life was 1.5 h. In data set [6], the Papp was found to be 0.39 ×10⁻⁶ cm/s. In addition, in [7], the AUC(0-t) came out at 572 ng·h/mL. The molecule further gave a clearance in [8] of 41.3 mL/min/kg.

As to `O=C1NCCOCCN2CC[C@@H](C2)Nc2ncc(C(F)(F)F)c(n2)-c2c[nH]c3cc1ccc23`, the figures for the IC50 on CDK7/Cyclin H/MNAT1 and in the data set with HCC70 were 11 nM and 1820 nM, respectively.

Broadly, the AUC(0-inf) is the area under the concentration-time curve extrapolated to infinity. A high value points to more exposure. As usually defined, the Kd is the constant that tells how readily two partners part at equilibrium. In turn, `CP(C)(=O)c1c2ccc3c(c[nH]c13)-c1nc(ncc1C(F)(F)F)N[C@H]1CC[C@@H](C1)NCCCCNC2=O` returned a bioavailability in data set [9] of 0.7%. Besides, the Cmax in [10] was 16.8 ng/mL. Moreover, the Vd in data set [2] amounted to 3.6 L/kg. In addition, the AUC(0-inf) in data set [11] amounted to 333 ng·h/mL; in [13] it was 26 ng·h/mL. Moreover, in data set [4], the efflux ratio is > 15.1. Moreover, in data set [6], the Papp was < 0.48 ×10⁻⁶ cm/s. For the same molecule, the Kd in data set [12] amounted to 0.16 nM. This molecule had an IC50 in the data set on HCC70 of 33 nM. Besides, the CLint scaled in data set [14] is < 13.4 mL/min/kg. In data set [15], this molecule showed a half-life of 1.4 h. Moreover, the clearance in data set [8] was determined as 49.3 mL/min/kg.

`O=C1NCCCCN[C@@H]2CC[C@H](C2)Nc2ncc(C(F)(F)F)c(n2)-c2c[nH]c3cc1ccc23`: the figures for the IC50 on CDK7/Cyclin H/MNAT1 and in the data set with HCC70 were 4.6 nM and 207 nM, respectively. Further, in data set [12], the Kd was 0.14 nM.

`CP(C)(=O)c1c2ccc3c(c[nH]c13)-c1nc(ncc1C(F)(F)F)N[C@H]1CC[C@@H](C1)NCCCCCCNC2=O` yielded an IC50 in the data set with HCC70 of 422 nM.
